In PMC2375353, “Effective treatment of experimental U-87MG human glioblastoma in nude mice with a targeted cytotoxic bombesin analogue, AN-215” (British Journal of Cancer, 2002):

System: U-87MG human glioblastoma xenografted into nude mice
Test: Experiment 2: growth of s.c. U-87MG xenografts, with BN receptor blockade
Format: in vivo, human tumour in male athymic nude mice
Settings: RC-3095 200 μg i.v. 15 min before AN-215 150 nmol kg^-1
Procedure: Human glioblastoma cell line U-87MG was obtained from American Type Culture Collection (Manassas, VA, USA) and cultured as described ([Pinski et al, 1994]). Male athymic (Ncr nu/nu) nude mice, approximately 6-weeks-old on arrival, were obtained from the National Cancer Institute (Frederick Cancer Research and Development Center, Frederick, MD, USA), and housed in laminar air-flow cabinets under pathogen-free conditions with a 12 h light/12 h dark schedule, and fed autoclaved standard chow and water ad libitum. Xenografts were initiated by s.c. injection of 12×10^6 U-87MG cells into the right flanks of five male nude mice. Tumours resulting after 2 weeks were aseptically dissected, mechanically minced, and 3-mm^3 pieces of tumour tissue were transplanted s.c. with a trocar needle. The take rate was 100%. All experiments were performed in accordance with institutional ethical guidelines of animal care and were essentially in agreement with [UKCCCR guidelines (1998)] for the welfare of animals in experimental neoplasia.
Experiment 2 was started when U-87MG tumours had grown to 70–84 mm^3 in volume. The animals were divided into the following treatment groups: group 1 (10 mice), control, vehicle solution; group 2 (10 mice), analogue AN-215; group 3 (five mice), unconjugated mixture of the cytotoxic radical AN-201 and BN antagonist RC-3095. All compounds were injected i.v. at 150 nmol kg^−1 of BW on days 1, 10, and 17. In addition, one group of tumour-bearing mice received an i.v. injection of 200 μg of BN antagonist RC-3095 15 min before each administration of AN-215 at a dose of 150 nmol kg^−1 of BW on days 1, 10 and 17 as in the case of group 2. The experiment was terminated on day 20 as described above.
Data are expressed as mean±s.e. Differences between mean values were evaluated by two-tailed Student's t-test, P<0.05 being considered significant.

Substance: [D-Tpi^6,Leu^13ψ(CH2NH)Leu^14]BN (6-14) [RC-3095, reference compound]
- Antitumour effect after BN receptor blockade: attenuated the antitumour effect of the cytotoxic BN analogue AN-215
